Key:
Format in all cases: biochemical
[1] = biological target: T1, human neutrophil elastase (HNE) (Homo sapiens, UniProt P08246); assay: Specificity assay, human neutrophil elastase; conditions: read-out: HLE activity in the specificity assays
T1 sequence (P08246 30-267): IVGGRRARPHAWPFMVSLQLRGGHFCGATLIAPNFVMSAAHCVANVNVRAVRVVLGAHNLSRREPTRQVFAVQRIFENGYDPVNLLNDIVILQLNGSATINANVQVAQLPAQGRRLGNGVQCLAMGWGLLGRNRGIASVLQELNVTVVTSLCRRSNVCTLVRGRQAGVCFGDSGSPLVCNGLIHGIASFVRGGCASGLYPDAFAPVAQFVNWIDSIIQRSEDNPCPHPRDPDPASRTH
Protocol: (§1) The specificities of compounds of the present disclosure were determined against a variety of serine proteases: human neutrophil elastase (HNE), porcine pancreatic elastase (PPE) and human pancreatic chymotrypsin and one cysteine protease: human liver cathepsin B. In all cases a 96-well plate format protocol using a fluorometric Amino-Methyl-Coumarin (AMC) substrate specific for each enzyme was used as described previously (PCT Patent Application No. WO 00/09543) with some modifications to the serine protease assays. All enzymes were purchased from Sigma, EMDbiosciences while the substrates were from Bachem, Sigma and EMDbiosciences.
(§2) Compound concentrations varied from 100 to 0.4 μM depending on their potency. The enzyme assays were each initiated by addition of substrate to enzyme-inhibitor pre-incubated for 10 min at room temperature and hydrolysis to 15% conversion as measured on cytofluor. […]
(§3) The percentage of inhibition was calculated using the formula: […]

[2] = biological target: HCV NS3/4A protease complex, BMS strain (genotype 1a) (UniProt P27958, species not given/STRAIN_BMS); assay: FRET peptide assay, HCV NS3/4A protease complex, BMS strain; conditions: read-out: IC50 against the NS3/4A BMS strain in the enzyme assay
HCV NS3/4A protease complex, BMS strain (genotype 1a), sequence (P27958 1027-1657, stated change not applied, one chain of several): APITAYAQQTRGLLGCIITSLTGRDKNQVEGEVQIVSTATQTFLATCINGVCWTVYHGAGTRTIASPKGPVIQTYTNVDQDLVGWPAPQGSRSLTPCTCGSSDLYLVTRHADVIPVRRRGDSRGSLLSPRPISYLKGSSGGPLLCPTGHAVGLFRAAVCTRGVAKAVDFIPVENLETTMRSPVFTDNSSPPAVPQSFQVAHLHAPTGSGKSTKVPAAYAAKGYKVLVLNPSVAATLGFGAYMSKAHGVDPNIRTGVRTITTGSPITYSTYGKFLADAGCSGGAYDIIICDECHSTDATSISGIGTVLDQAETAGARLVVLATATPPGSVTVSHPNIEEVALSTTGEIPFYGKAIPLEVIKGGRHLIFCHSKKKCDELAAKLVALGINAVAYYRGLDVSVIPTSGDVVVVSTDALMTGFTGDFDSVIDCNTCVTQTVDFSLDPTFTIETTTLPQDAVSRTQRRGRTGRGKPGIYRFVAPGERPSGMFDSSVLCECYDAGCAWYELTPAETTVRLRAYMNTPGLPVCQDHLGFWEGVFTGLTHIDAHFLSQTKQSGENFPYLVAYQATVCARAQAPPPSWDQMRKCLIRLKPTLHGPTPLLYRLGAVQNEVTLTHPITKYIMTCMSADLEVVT
From the text: HCV NS3 protease complexes, derived from the BMS strain, H77 strain or J4L6S strain, were generated, as described below. These purified recombinant proteins were generated for use in a homogeneous assay (see below) to provide an indication of how effective compounds of the present disclosure would be in inhibiting HCV NS3 proteolytic activity.
Serum from an HCV-infected patient was obtained from Dr. T. Wright, San Francisco Hospital. […]
In order to monitor HCV NS3/4A protease activity, an NS3/4A peptide substrate was used. […] The peptide also contains a fluorescence donor, EDANS, near one end of the peptide and an acceptor, DABCYL, near the other end. The fluorescence of the peptide is quenched by […] resonance energy transfer (RET) between the donor and the acceptor, but as the NS3 protease cleaves the peptide the products are released from RET quenching and the fluorescence of the donor becomes apparent.
The peptide substrate was incubated with one of the three recombinant NS3/4A protease complexes, in the absence or presence of a compound of the present disclosure. The inhibitory effects of a compound were determined by monitoring the formation of fluorescent reaction product in real time using a Cytofluor Series 4000. […]

[3] = system: human pancreatic chymotrypsin; assay: Specificity assay, chymotrypsin; conditions: read-out: Chymotrypsin activity in the specificity assays
Protocol: as §1, §2, §3

SMILES: COc1ccc2c(O[C@@H]3C[C@H]4C(=O)N[C@]5(C(=O)NS(=O)(=O)C6CC6)C[C@H]5/C=C\CCCCC[C@H](Nc5ccc(OC)nc5)C(=O)N4C3)nccc2c1 (single isomer, unassigned) [Compound 1]
- IC50 [1]: 1500 nM
- IC50 [2]: 8.7 nM
- IC50 [3]: 25000 nM
